EC50 data for 76 molecules are collected here from PubChem BioAssay AID588407 (The Scripps Research Institute Molecular Screening Center, 2011).

The term EC50 denotes the concentration that produces a half-maximal response.

The target in the test is Mu-type opioid receptor (Homo sapiens) + Delta-type opioid receptor (Homo sapiens) (UniProt P35372+P41143). Nature of the test: agonists of MOR-DOR heterodimerization, dose response, cell-based, luminescence (AID 588407).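 Also: potency of agonists raising the heterodimer signal.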 As to conditions: cells.

Several values for one entry are separate records, joined by “and”; a condition that tells them apart may be missing. Identical values can stand only once. Activity calls are given as the source filed them. No rule for the calls is given here. Where only a bound is given, the exact number is not on record here.

Mu-type opioid receptor (Homo sapiens) + Delta-type opioid receptor (Homo sapiens), sequence (P35372 whole entry, looked up): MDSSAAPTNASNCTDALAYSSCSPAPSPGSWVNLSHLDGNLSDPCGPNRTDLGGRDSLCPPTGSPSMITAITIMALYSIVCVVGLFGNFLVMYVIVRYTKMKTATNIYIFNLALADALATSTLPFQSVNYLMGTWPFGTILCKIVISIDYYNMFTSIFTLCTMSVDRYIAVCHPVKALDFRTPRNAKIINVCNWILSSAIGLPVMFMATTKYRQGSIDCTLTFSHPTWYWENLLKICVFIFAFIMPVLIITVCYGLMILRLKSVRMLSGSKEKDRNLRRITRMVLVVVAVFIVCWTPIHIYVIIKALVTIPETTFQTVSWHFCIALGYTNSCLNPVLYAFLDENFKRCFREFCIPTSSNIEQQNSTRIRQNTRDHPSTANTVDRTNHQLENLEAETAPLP
Mu-type opioid receptor (Homo sapiens) + Delta-type opioid receptor (Homo sapiens), sequence (P41143 whole entry, looked up): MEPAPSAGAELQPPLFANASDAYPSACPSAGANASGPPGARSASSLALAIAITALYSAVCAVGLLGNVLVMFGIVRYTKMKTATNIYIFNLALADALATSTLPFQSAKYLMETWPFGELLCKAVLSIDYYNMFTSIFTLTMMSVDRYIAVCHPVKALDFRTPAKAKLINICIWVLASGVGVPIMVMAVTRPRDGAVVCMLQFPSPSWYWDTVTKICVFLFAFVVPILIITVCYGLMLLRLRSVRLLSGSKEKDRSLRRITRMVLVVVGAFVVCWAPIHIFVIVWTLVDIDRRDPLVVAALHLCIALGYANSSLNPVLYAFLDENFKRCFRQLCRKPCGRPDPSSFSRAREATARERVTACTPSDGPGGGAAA

In the case of `Cc1ccc(C)c(-n2cc(CNCCCn3cccn3)c(-c3ccccc3)n2)c1`, the concentration giving a half-maximal response (EC50) is 0.654 µM.
On to `COc1ccc(C(CNC(=O)CSc2ccccc2C)N(C)C)cc1` (stereo unspecified), for which the EC50 was 4.56 µM.
Turning to `COc1ccc(C(CNc2ncnc3sc(C)c(C)c23)N(C)C)cc1` (stereo unspecified), the EC50 was 6.83 µM.
To `CCN1CCN(c2ccc([N+](=O)[O-])c(Sc3nc4ccccc4[nH]3)c2)CC1` belongs 4.66 µM; to `O=S(=O)(NC1CC1)c1ccc(S(=O)(=O)N2CCCC3(CCCCC3)C2)cc1`, “inactive”; to `Cc1cccc2cc(C(c3nnnn3Cc3ccccc3)N3CCN(C)CC3)c(=O)[nH]c12` (stereo unspecified), “inactive”.
Regarding `O=c1c2ccc(Cl)cc2[nH]c(=S)n1Cc1cccnc1`, the EC50 is 8.6 µM.
Take `CN(C)C(CNC(=O)Cc1ccc(Br)cc1)c1ccccc1` (stereo unspecified): the concentration for a half-maximal effect (EC50) was 0.915 µM.
Regarding `Nc1nonc1C(=O)NCCNCc1c(OCc2ccccc2F)ccc2ccccc12`, the EC50 result was “inactive”.
As for `CC(=O)Nc1ccc(S(=O)(=O)NC2=C(N3CCN(Cc4ccccc4)CC3)C(=O)c3ccccc3C2=O)cc1`, the EC50 was 1.38 µM and 1.63 µM.
Consider `CN(C)C(CNC(=O)c1cnc(Cl)c(Cl)c1)c1ccccc1` (stereo unspecified), for which the EC50 was 0.555 µM.
In the case of `CN(C)C(CNC(=O)c1ccc(Br)cc1)c1ccco1` (stereo unspecified), the EC50 result is “inactive”.
As to `CN1C2C=C(N(CCc3c[nH]c4ccccc34)C(=O)c3ccc(Cl)cc3)CC1CC2` (stereo unspecified), the EC50 was 4.76 µM.
Consider `Cc1ccc(C)c(-n2cc(CNCCc3cnccn3)c(-c3ccccc3)n2)c1`, for which the EC50 was 10 µM.
Turning to `CCOC(=O)C1(Cc2ccccc2)CCN(Cc2cccn2-c2cccnc2)CC1`, the EC50 result was “inactive”.
In the case of `Cc1cc2[nH]c3c4ccccc4nc(C)c3c2cc1C`, the EC50 is 7.66 µM.
For the molecule `COc1ccccc1NC(=O)c1sc2nc(C)cc(C)c2c1N`, the EC50 was > 92.5 µM (inactive).
As to `CCOC(=O)C1(CC2CCCCO2)CCN(Cc2ccc(OC)cc2F)CC1` (stereo unspecified), the EC50 entry is “inactive”.
Consider `Cc1nc(N2CCN(c3ccccn3)CC2)c2c(C)c(C(=O)N3CCN(c4ccc(F)cc4)CC3)sc2n1`, for which the EC50 is 2.2 µM.
In the case of `COc1ccc(C(CNC(=O)c2ccc(S(=O)(=O)N(C)C)cc2)N(C)C)cc1` (stereo unspecified), the EC50 is 4.57 µM.
As to `CCN1CCN(S(=O)(=O)c2ccc(Cl)c(C(=O)N(CCc3ccccc3)Cc3ccccc3)c2)CC1`, the EC50 entry is “inactive”.
Under `COCCCn1c(N)c(-c2nc3ccccc3n2C)c2nc3ccccc3nc21` stands 4.2 µM; under `COc1ccc(C(CNC(=O)c2cncc(Br)c2)N(C)C)cc1` (stereo unspecified), 2.02 µM.
Take `CCOC(=O)C1(CCc2ccccc2)CCN(Cc2ccc(NC(C)=O)cc2)CC1`: the EC50 is 0.227 µM.
Take `OCC1(CCc2ccccc2)CCN(Cc2ccccc2Cl)CC1`: the EC50 is 9.21 µM.
As to `CN(C(=O)Cc1ccc(Cl)c(Cl)c1)C(CN1CCCC1)c1cccc(OCC(=O)O)c1` (stereo unspecified), the EC50 result was “inactive”.
Take `CCc1ccc(NC(=O)Nc2ccc3c(c2)N(C)C(=O)CS3)cc1`: the EC50 is 9.42 µM.
On to `CC[C@@H](C)[C@@H]1CN([C@@H](CN2CCC[C@H]2CN2C(N)=NC[C@H]2C(C)C)C(C)C)C(=N)N1CCc1ccc(Cl)c(Cl)c1`, for which the EC50 is 2.36 µM.
Regarding `O=S(=O)(c1c(Cl)cc(Br)cc1Cl)N1CCN(C(=S)NC2CC2)CC1`, the EC50 was 5.98 µM.
Regarding `COc1ccc(C2Nc3ccccc3C(=O)N2c2ccc(F)cc2)cc1CSc1ccccn1` (stereo unspecified), the EC50 entry is “inactive”.
As to `Cc1cc(N2CCN(c3ccc([N+](=O)[O-])c4cccnc34)CC2)c2ccccc2n1`, the EC50 is > 92.5 µM (inactive).
Turning to `CC(C)c1ccc(NC(=O)N(CCc2nc3ccccc3[nH]2)C2CCCC2)cc1`, the EC50 result is “inactive”.
In the case of `CN1CCN(c2ccc(NC(=O)c3ccc(-c4ccc(Br)cc4)o3)cc2)CC1`, the EC50 is 1.92 µM.
For the molecule `COc1ccc(C(C)NCCC(c2ccc(OC(C)C)cc2)c2ccccc2OC)cc1` (stereo unspecified), the EC50 result was “inactive”.
Under `CN(C)S(=O)(=O)c1ccc(-c2csc(N/N=C/c3ccc(O)cc3)n2)cc1` stands 9.95 µM.
Turning to `COc1cc(Br)cc(/C=N/NC(=O)Cc2ccc(C(F)(F)F)cc2[N+](=O)[O-])c1O`, the EC50 entry was “inactive”.
Turning to `O=C(C=P(c1ccccc1)(c1ccccc1)c1ccccc1)c1ccccc1-c1ccccc1C(=O)C=P(c1ccccc1)(c1ccccc1)c1ccccc1`, the EC50 is > 92.5 µM (inactive).
In the case of `CCN(CC)Cc1cc(Nc2c3ccccc3nc3c4ccccc4n(C)c23)cc(CN(CC)CC)c1O`, the EC50 was 1.78 µM.
With `CCC1(C)CC(CCNCc2ccc(N(C)C)cc2)(c2ccc(F)cc2)CCO1` (stereo unspecified), the EC50 is 2.9 µM.
With `COc1ccc(CN2CCc3c([nH]c4ccccc34)C2)c(OC)c1C`, the EC50 result was “inactive”.
Take `Cc1cccc(NC(=S)NCC(c2cccnc2)N(C)C)c1` (stereo unspecified): the EC50 was 1.02 µM.
As to `CN1C(CC(=O)Nc2ccc(Br)cc2)c2ccccc2CC1(C)C` (stereo unspecified), the half-maximal effective concentration (EC50) is 9.37 µM.
Consider `COc1cc2c3cc1Oc1cc(ccc1O)C[C@@H]1c4c(cc(OC)c(O)c4Oc4ccc(cc4)C[C@H]3N(C)CC2)CCN1C`, for which the EC50 entry was “inactive”.
As for `COc1ccc2[nH]c3c(=O)n(/N=C/[C@H]4C(C)C=C(C)CC4C)c(=O)[nH]c3c2c1` (stereo partly specified), the EC50 is > 92.5 µM (inactive).
With `Cc1ccc(Cl)cc1NC(=O)CNCC(c1ccccc1)N(C)C` (stereo unspecified), the EC50 is 9.86 µM.
Take `CC(=O)NC(CC(=O)NCC(c1ccco1)N(C)C)c1ccccc1` (stereo unspecified): the EC50 is 1.06 µM.
With `Cn1c(-c2c(N)n(CCc3ccccc3)c3nc4ccccc4nc23)nc2ccccc21`, the EC50 was 3.15 µM.
Take `CN(C)CCCN(C(=O)c1ccc(S(=O)(=O)N(C)Cc2ccccc2)cc1)c1nc2c(F)cccc2s1`: the EC50 was 4.97 µM.
To `Cc1occc1C(=O)N/N=C/c1ccc(-c2ccccc2)cc1` belongs > 92.4 µM (inactive); to `CN(C)C(CNC(=S)Nc1cccc(Cl)c1)c1cccnc1` (stereo unspecified), 0.408 µM; to `COc1ccc(C(CNC(=O)/C=C/c2c(Cl)nc3ccccn23)N(C)C)cc1` (stereo unspecified), 7.62 µM.
Under `CN(C)C(CNC(=S)Nc1ccccc1Cl)c1cccnc1` (stereo unspecified) stands 0.524 µM; under `CN(C)C(CNC(C(=O)Nc1ccc([N+](=O)[O-])cc1Br)c1ccccc1)c1ccccc1` (stereo unspecified), 9.79 µM.
Take `Cc1ccc(Cn2c(=N)n(CC(O)COc3ccccc3)c3ccccc32)cc1` (stereo unspecified): the EC50 result was “inactive”.
Under `COc1ccc(/C=C/C(=O)NC(=S)NCCc2ccc(OC)c(OC)c2)cc1` stands 8.72 µM; under `Clc1ccc2c(N/N=C/c3ccccc3Br)ccnc2c1`, 9.73 µM.
Under `Cc1cc(N2CCN(C)CC2)ccc1NC(=O)c1ccc(-c2ccc(Cl)cc2)o1` stands “inactive”; under `OCC1(CC2CCCCO2)CCN(Cc2ccccc2-c2ccco2)CC1` (stereo unspecified), 4.76 µM.
For the molecule `Cc1ccccc1Cn1c(O)c(N=NC(=S)Nc2ccccc2F)c2ccccc21`, the EC50 was > 92.5 µM (inactive).
As to `CC(C)n1ncc2c(C(=O)Nc3cccc(C#N)c3)cc(C3CC3)nc21`, the EC50 is 3.59 µM.
To `CCOC(=O)C1(CCOc2ccccc2)CCN(Cc2ccc3c(c2)OCCO3)CC1` belongs “inactive”; to `Cc1cccc(NC(=S)NCC(c2cccnc2)N(C)C)c1C` (stereo unspecified), 0.303 µM; to `O=C(COc1ccc(/C=N/NC(=O)c2cc3ccccc3o2)cc1Br)Nc1ccccc1`, 9.7 µM.
As for `Cc1c(CCOC(=O)c2ccccc2)sc[n+]1CC(=O)c1ccc(Br)cc1`, the EC50 result was “inactive”.
Take `COC(=O)C(Cc1cccc(C)n1)(c1ccccc1)c1ccccc1`: the EC50 was 3.93 µM.
Take `Cc1ccc2nc(N(CCCN(C)C)C(=O)c3ccc(S(=O)(=O)N4CCc5ccccc5C4)cc3)sc2c1`: the EC50 is 8.9 µM.
With `COc1ccc(-c2csc(N(CCCN(C)C)C(=O)c3cccs3)n2)cc1`, the EC50 result is “inactive”.
For the molecule `O=C(N[C@H]1C/C=C\C[C@H](CC(=O)N(CCO)Cc2ccccc2)C(=O)N[C@H](Cc2c[nH]c3ccccc23)COC1=O)OCC1c2ccccc2-c2ccccc21`, the EC50 result was “inactive”.
For `CN(C)C(CNC(=O)c1ccc2ccccc2c1)c1ccco1` (stereo unspecified), the EC50 entry is “inactive”.
Under `Oc1ccc(Oc2ccc3c(C(F)(F)F)cc(C(F)(F)F)nc3n2)cc1` stands “inactive”.
As for `CCOC(=O)C1(CCOc2ccccc2)CCN(Cc2ccc(C)s2)CC1`, the EC50 entry was “inactive”.
Consider `COc1ccc(-n2c3c(cc(C(=O)NNc4ccccc4C)c2=O)C(=O)CC(C)(C)C3)cc1`, for which the EC50 was 2.55 µM.
For `CCOC(=O)C1(CC2CCCCO2)CCN(Cc2nc(-c3cccs3)oc2C)CC1` (stereo unspecified), the EC50 entry was “inactive”.
Turning to `Cc1cc(/C=C2\SC(=S)N(C)C2=O)c(C)n1-c1ccc(O)cc1`, the EC50 entry is “inactive”.
As for `Cc1ccc(-n2cc(CNC(C)c3cnn(C)c3)c(-c3ccc(F)cc3)n2)cc1` (stereo unspecified), the EC50 is 0.151 µM.
In the case of `CN(C)C(CNC(=S)Nc1ccccc1)c1cccnc1` (stereo unspecified), the EC50 is 3.47 µM.
